According to US8921348B2, “Optimizing mifepristone levels in plasma serum of patients suffering from mental disorders treatable with glucocorticoid receptor antagonists” (Corcept Therapeutics, priority 2007, dated 2014):

Columns and labels:
[1] = species and route not given; cited from earlier work
[2] = Mifepristone blood serum/plasma level after the same dose in different patients; assay type: in vivo, human; settings: same dose of mifepristone
Method: In some embodiments, the assay can be performed as follows. Blood is collected from a patient in a vacutainer containing sodium heparin. The blood is centrifuged and the resulting plasma frozen at an appropriate temperature until assay. In some embodiments, the temperature is about −70° C. In other embodiments, other blood components can be collected and stored. Prior to analysis, the plasma is thawed and a fraction of the plasma is mixed with an internal standard in a solvent such as acetonitrile, to obtain a fixed concentration of the standard. In some embodiments, the internal standard can be mifepristone-d4. The concentration of the internal standard is selected in order to be greater than the expected concentration of mifepristone in the plasma. […]
The sample can then be analyzed by reverse-phase high pressure liquid chromatography (HPLC). […]
The reverse-phase HPLC column can be a phenyl column maintained at 50° C. […] Following elution, the mobile phase can be nebulized using heated nitrogen in a Z-spray source/interface and the ionized compounds detected using a tandem quadrupole mass spectrometer. Mifepristone (molecular weight of 430 g/mol) can be detected at m/z 372.30. The internal standard mifepristone-d4 can be detected at m/z 376.30. The ratio of the mifepristone peak height to the peak height for the internal standard can then be calculated. […]

[3] = test system: patients with major depressive disorder with psychotic features (PMD); test: Phase III trials of CORLUX plus antidepressant vs. placebo: responders on BPRS Positive Symptom Subscale; assay type: in vivo, human
Text: This example provides a randomized, double-blind, placebo-controlled, parallel group study of the safety and efficacy of three dose levels of CORLUXTM (Mifepristone) plus an antidepressant vs. placebo plus an antidepressant in the treatment of psychotic symptoms in patients with major depressive disorder with psychotic features (PMD). The study was a Phase III trial performed using several investigators at several different sites. […] Patients eligible for randomization were male or nonpregnant female outpatients, and inpatients, if clinically required, with a diagnosis of Major Depressive Disorder with Psychotic Features (DSM-IV 296.24 or 296.34), and a BPRS Positive Symptom subscale score of at least 12, a BPRS total score of at least 38, and a HAMD-24 score of at least 20. CORLUX was used as the test drug at 300 (1×300 mg tablet), 600 (2×300 mg tablet), and 1200 mg (4×300 mg tablet) once a day by mouth for the initial 7 days. […] The reference drug was a placebo (1, 2, or 4 tablets matching CORLUX 300 mg tablets) once a day by mouth for the initial 7 days. […] An antidepressant selected from a prescribed list was started simultaneously with the study drug, and continued to the end of the trial. BPRS and HAM-D assessments were performed at Screen and on Days 0, 7, 14, 28, 42, and 56, and at early termination when it occurred. Safety visits occurred at Days 21 and 35. The patients who are seen as outpatients made daily visits to the clinic setting to receive study medications for the first 7 days. If clinically necessary, a patient was treated as an inpatient. In addition to the selected antidepressant, continuing benzodiazepines was allowed up to specified dose levels, but antipsychotics, mood stabilizers and additional antidepressants were not allowed during the entire study. If the patient was at imminent risk to him/herself and/or others and therefore could not be adequately treated within the study (e.g., required ECT, new or re-hospitalization for PMD, antipsychotics or mood stabilizers, or a second antidepressant), the patient underwent an early termination visit on the day that rescue therapy was started and completed final efficacy evaluations. If early termination occurred prior to day 35, the patient returned for a safety follow up visit at day 35. […] The secondary endpoints were: (1) the proportion of responders at days 7 and 28; and (2) the mean change from baseline to day 56 in the HAM-D-24 total score. […] This example provides an international, double-blind, placebo-controlled study of the efficacy and safety of CORLUXTM (Mifepristone) vs. placebo in the treatment of psychotic symptoms in patients with Psychotic Major Depression (PMD). The study was a Phase III trial performed using several investigators at several different international sites. […] The number of patients was 220 evaluable subjects. […] CORLUX was administered in a 600 mg dose once a day by mouth for the initial 7 days (administered as two 300 mg tablets). Reference drug, dose, dosage regimen, route of administration: Matching placebo was administered once a day by mouth for the initial 7 days. […] After the 7-day dosing period, patients were evaluated at Days 14, 21, 28, 35, 42 and 56. An antidepressant was administered simultaneously with study drug, and continued to the end of the trial (Day 56). BPRS and HAMD-24 assessments were performed at Screen and on Days 0, 7, 14, 28, 42 and 56, or at early termination. A safety visit occurred on Days 21 and 35, and at study termination on Day 56. Subjects treated on an outpatient basis made daily visits to the clinic to receive study medication for the first 7 days. Subjects were treated on an inpatient basis for as long as deemed clinically necessary by the investigator. In addition to the selected antidepressant, concomitant benzodiazepine treatment was allowed up to specified dose levels. Antipsychotics, mood stabilizers and a second antidepressant were prohibited during the entire study. […]

## CC#C[C@]1(O)CC[C@H]2[C@@H]3CCC4=CC(=O)CCC4=C3[C@@H](c3ccc(N(C)C)cc3)C[C@@]21C [Corlux, 17-beta-hydroxy-11-beta-(4-dimethyl-aminophenyl)-17-alpha-(1-propynyl)-estra-4,9-dien-3-one]
[1]
  LD50 dose: about 1000 mg/kg
[2]
  difference in blood serum levels from one patient to another: ≤ 800% and up to 800%
[3]; 1200 mg group (OC), all patients receiving the 1200 mg dose, FIG. 4
  proportion of patients with at least a 50% reduction from baseline in BPRS PSS scores at days 7 and 56: 47%
[3]; 1200 mg group (OC), plasma levels <1357 ng/mL, FIG. 5
  proportion of patients with at least a 50% reduction from baseline in BPRS PSS scores at days 7 and 56: 31%
[3]; 1200 mg group (OC), plasma levels <1661 ng/mL, FIG. 6
  proportion of patients with at least a 50% reduction from baseline in BPRS PSS scores at days 7 and 56: 39%
[3]; 1200 mg group (OC), plasma levels >1357 ng/mL, FIG. 5
  proportion of patients with at least a 50% reduction from baseline in BPRS PSS scores at days 7 and 56: 54%
[3]; 1200 mg group (OC), plasma levels >1661 ng/mL, FIG. 6
  proportion of patients with at least a 50% reduction from baseline in BPRS PSS scores at days 7 and 56: 58%
[3]; all studies (OC), all patients receiving Corlux, FIG. 1
  proportion of patients with at least a 50% reduction from baseline in BPRS PSS scores at days 7 and 56: 35%
[3]; all studies (OC), patients with plasma levels <1357 ng/mL, FIG. 2
  proportion of patients with at least a 50% reduction from baseline in BPRS PSS scores at days 7 and 56: 27%
[3]; all studies (OC), patients with plasma levels <1661 ng/mL, FIG. 3
  proportion of patients with at least a 50% reduction from baseline in BPRS PSS scores at days 7 and 56: 29%
[3]; all studies (OC), patients with plasma levels >1357 ng/mL, FIG. 2
  proportion of patients with at least a 50% reduction from baseline in BPRS PSS scores at days 7 and 56: 40%
[3]; all studies (OC), patients with plasma levels >1661 ng/mL, FIG. 3
  proportion of patients with at least a 50% reduction from baseline in BPRS PSS scores at days 7 and 56: 44%
